Test results as given in BindingDB's records for PubMed 34843914 (China Pharmaceutical University, 2022).

Target: Poly [ADP-ribose] polymerase 1 (Homo sapiens, UniProt P09874)
Assay: Inhibition of PARP1 (unknown origin)

Chain of Poly [ADP-ribose] polymerase 1 (P09874 whole entry): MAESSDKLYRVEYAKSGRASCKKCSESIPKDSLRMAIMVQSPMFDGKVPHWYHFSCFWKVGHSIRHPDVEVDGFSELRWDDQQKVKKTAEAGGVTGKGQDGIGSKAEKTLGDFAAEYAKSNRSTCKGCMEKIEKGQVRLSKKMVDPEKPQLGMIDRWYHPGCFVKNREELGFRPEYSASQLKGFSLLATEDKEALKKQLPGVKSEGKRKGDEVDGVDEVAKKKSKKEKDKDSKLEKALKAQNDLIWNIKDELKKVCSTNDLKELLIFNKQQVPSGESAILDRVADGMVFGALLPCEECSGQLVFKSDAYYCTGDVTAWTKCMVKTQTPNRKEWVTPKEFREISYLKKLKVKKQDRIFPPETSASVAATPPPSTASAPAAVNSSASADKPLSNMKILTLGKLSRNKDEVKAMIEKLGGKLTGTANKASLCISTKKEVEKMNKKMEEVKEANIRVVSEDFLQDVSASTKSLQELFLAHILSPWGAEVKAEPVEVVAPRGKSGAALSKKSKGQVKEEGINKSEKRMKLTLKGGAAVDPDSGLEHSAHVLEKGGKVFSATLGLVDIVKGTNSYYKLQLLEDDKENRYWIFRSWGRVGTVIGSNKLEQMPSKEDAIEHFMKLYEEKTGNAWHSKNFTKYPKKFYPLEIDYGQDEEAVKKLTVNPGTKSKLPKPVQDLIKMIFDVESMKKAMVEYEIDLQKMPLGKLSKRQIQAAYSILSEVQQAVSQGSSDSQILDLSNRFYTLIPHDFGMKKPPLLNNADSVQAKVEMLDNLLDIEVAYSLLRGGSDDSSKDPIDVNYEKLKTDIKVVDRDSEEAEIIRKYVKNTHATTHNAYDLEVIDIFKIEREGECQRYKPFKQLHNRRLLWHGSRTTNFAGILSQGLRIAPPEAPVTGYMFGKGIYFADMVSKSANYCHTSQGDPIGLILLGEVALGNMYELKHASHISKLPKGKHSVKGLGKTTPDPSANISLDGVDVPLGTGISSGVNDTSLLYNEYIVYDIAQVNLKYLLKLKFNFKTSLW

SMILES: O=c1cc(O)cc2oc(-c3ccc(O)c(-c4c(O)cc(O)c5c(=O)cc(-c6ccc(O)cc6)oc45)c3)cc(O)c1-2
- IC50: 259 nM
